Marks after values point to notes of the source that are not given here.
Biological target: T1, BT_2972 (Bacteroides thetaiotaomicron, UniProt Q8A3I2)
T1 construct: 257 amino acids with noncleavable N-terminal (His)6 tag; pGS21a, E. coli BL21 (DE3); monomer in solution; first 12 residues disordered
Assay: isothermal titration calorimetry
Format: binding
Conditions: 20 mM Tris-HCl pH 8.0, 200 mM NaCl, 24 °C; single-site model

T1 sequence (Q8A3I2 entry or part of it, change not shown): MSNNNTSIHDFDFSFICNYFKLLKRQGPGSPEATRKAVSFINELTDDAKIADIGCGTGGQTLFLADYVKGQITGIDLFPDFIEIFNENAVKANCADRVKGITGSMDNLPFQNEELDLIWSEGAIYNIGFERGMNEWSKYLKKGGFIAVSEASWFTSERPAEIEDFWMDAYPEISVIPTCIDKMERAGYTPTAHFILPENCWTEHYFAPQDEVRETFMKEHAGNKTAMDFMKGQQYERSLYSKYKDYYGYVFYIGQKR

With `Nc1ncnc2c1ncn2[C@@H]1O[C@H](CSCC[C@H](N)C(=O)O)[C@@H](O)[C@H]1O` [AdoHcy] the Ka was 3.498×10^5 (±0.66×10^5).
`C[S+](CC[C@H](N)C(=O)O)C[C@H]1O[C@@H](n2cnc3c(N)ncnc32)[C@H](O)[C@@H]1O` (some centres unmarked) [AdoMet] was tested, and the Ka was 0.395×10^5 (±0.0435×10^5).
